Experimental data taken from ChEMBL document CHEMBL5154688, “Design, Synthesis, and Characterization of I-BET567, a Pan-Bromodomain and Extra Terminal (BET) Bromodomain Oral Candidate” (J Med Chem, 2022).

Legend:
[1] = biological target: T1, Bromodomain-containing protein 4 (Homo sapiens, UniProt O60885); test: Inhibition of BRD4 BD1 (unknown origin) incubated for 30 mins in presence of fluorescent ligand by TR-FRET method
[2] = biological target: C-C motif chemokine 2 (Homo sapiens, UniProt P13500); test: Inhibition of MCP-1 in LPS-stimulated human whole blood incubate for 24 hrs by immuno assay; type: tissue-based
C-C motif chemokine 2, sequence (P13500 whole entry): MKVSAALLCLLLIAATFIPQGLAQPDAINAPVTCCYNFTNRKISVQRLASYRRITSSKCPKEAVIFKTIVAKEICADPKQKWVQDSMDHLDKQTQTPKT

[3] = biological target: Cytochrome P450 3A4 (Homo sapiens, UniProt P08684); test: Inhibition of CYP3A4 (unknown origin); type: ADME
Cytochrome P450 3A4, sequence (P08684 whole entry): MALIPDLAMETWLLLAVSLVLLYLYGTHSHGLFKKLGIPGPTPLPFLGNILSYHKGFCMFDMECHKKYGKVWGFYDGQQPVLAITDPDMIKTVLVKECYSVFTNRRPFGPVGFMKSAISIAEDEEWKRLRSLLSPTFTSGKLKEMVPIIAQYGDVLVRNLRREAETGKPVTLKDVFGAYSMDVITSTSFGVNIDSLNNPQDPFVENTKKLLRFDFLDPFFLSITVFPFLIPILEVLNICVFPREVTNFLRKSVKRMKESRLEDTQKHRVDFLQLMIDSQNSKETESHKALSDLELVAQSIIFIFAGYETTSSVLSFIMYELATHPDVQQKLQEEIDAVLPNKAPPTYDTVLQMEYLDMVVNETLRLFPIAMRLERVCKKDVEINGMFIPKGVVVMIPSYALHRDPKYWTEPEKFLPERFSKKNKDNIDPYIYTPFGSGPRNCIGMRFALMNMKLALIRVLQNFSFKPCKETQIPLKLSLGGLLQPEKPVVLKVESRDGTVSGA

[4] = Intrinsic clearance in dog hepatocytes incubated upto 45 mins by LC-MS/MS analysis; type: ADME, cell-based, Canis lupus familiaris, Hepatocyte; conditions: 0.75 h
[5] = Intrinsic clearance in human hepatocytes measured after 120 mins by LC-MS/MS analysis; type: ADME, cell-based, Hepatocyte; conditions: 2 h
[6] = Unbound clearance in Wistar Han rat blood at 3 mg/kg, po or 1.3 mg/kg, iv measured upto 24 hrs by LC-MS/MS analysis; type: ADME, organism-based; conditions: in vivo
[7] = Renal clearance in Wistar Han rat at 3 mg/kg, po or 1.3 mg/kg, iv upto 24 hrs by LC-MS/MS analysis; type: ADME, organism-based; conditions: in vivo
[8] = Volume of distribution at steady state in Wistar Han rat blood at 3 mg/kg, po or 1.3 mg/kg, iv measured upto 24 hrs by LC-MS/MS analysis; type: ADME, organism-based; conditions: in vivo
[9] = Volume of distribution at steady state in Beagle dog blood at 3 mg/kg, po or 1.0 mg/kg, iv by LC-MS/MS analysis; type: ADME, organism-based, Canis lupus familiaris; conditions: in vivo
[10] = Unbound volume of distribution at steady state in Wistar Han rat blood at 3 mg/kg, po or 1.3 mg/kg, iv measured upto 24 hrs by LC-MS/MS analysis; type: ADME, organism-based; conditions: in vivo
[11] = Unbound volume of distribution at steady state in Beagle dog blood at 3 mg/kg, po or 1.0 mg/kg, iv by LC-MS/MS analysis; type: ADME, organism-based, Canis lupus familiaris; conditions: in vivo
[12] = Terminal half life in Beagle dog blood at 3 mg/kg, po or 1.0 mg/kg, iv by LC-MS/MS analysis; type: ADME, organism-based, Canis lupus familiaris; conditions: read-out: beta t1/2 (converted)
[13] = Oral bioavailability in Wistar Han rat blood at 3 mg/kg measured upto 24 hrs by LC-MS/MS analysis; type: ADME, organism-based
[14] = Oral bioavailability in Beagle dog blood at 3 mg/kg by LC-MS/MS analysis; type: ADME, organism-based, Canis lupus familiaris
[15] = Unbound fraction in Beagle dog blood at 3 mg/kg, po or 1.0 mg/kg, iv by LC-MS/MS analysis; type: ADME, organism-based, Canis lupus familiaris
[16] = Intrinsic clearance in rat hepatocytes after 60 mins by LC-MS/MS analysis; type: ADME, cell-based, Hepatocyte; conditions: 1 h
[17] = Renal clearance in Beagle dog assessed as ratio/proportion of renal elimination to total clearance at 3 mg/kg, po or 1 mg/kg, iv by LC-MS/MS analysis; type: ADME, organism-based, Canis lupus familiaris; conditions: in vivo
[18] = biological target: T1, Bromodomain-containing protein 4; test: Binding affinity to BRD4 BD1 (unknown origin) assessed as dissociation constant
[19] = biological target: CREB-binding protein (Homo sapiens, UniProt Q92793); test: Binding affinity to CREBBP (unknown origin) assessed as dissociation constant
CREB-binding protein, sequence (Q92793 whole entry): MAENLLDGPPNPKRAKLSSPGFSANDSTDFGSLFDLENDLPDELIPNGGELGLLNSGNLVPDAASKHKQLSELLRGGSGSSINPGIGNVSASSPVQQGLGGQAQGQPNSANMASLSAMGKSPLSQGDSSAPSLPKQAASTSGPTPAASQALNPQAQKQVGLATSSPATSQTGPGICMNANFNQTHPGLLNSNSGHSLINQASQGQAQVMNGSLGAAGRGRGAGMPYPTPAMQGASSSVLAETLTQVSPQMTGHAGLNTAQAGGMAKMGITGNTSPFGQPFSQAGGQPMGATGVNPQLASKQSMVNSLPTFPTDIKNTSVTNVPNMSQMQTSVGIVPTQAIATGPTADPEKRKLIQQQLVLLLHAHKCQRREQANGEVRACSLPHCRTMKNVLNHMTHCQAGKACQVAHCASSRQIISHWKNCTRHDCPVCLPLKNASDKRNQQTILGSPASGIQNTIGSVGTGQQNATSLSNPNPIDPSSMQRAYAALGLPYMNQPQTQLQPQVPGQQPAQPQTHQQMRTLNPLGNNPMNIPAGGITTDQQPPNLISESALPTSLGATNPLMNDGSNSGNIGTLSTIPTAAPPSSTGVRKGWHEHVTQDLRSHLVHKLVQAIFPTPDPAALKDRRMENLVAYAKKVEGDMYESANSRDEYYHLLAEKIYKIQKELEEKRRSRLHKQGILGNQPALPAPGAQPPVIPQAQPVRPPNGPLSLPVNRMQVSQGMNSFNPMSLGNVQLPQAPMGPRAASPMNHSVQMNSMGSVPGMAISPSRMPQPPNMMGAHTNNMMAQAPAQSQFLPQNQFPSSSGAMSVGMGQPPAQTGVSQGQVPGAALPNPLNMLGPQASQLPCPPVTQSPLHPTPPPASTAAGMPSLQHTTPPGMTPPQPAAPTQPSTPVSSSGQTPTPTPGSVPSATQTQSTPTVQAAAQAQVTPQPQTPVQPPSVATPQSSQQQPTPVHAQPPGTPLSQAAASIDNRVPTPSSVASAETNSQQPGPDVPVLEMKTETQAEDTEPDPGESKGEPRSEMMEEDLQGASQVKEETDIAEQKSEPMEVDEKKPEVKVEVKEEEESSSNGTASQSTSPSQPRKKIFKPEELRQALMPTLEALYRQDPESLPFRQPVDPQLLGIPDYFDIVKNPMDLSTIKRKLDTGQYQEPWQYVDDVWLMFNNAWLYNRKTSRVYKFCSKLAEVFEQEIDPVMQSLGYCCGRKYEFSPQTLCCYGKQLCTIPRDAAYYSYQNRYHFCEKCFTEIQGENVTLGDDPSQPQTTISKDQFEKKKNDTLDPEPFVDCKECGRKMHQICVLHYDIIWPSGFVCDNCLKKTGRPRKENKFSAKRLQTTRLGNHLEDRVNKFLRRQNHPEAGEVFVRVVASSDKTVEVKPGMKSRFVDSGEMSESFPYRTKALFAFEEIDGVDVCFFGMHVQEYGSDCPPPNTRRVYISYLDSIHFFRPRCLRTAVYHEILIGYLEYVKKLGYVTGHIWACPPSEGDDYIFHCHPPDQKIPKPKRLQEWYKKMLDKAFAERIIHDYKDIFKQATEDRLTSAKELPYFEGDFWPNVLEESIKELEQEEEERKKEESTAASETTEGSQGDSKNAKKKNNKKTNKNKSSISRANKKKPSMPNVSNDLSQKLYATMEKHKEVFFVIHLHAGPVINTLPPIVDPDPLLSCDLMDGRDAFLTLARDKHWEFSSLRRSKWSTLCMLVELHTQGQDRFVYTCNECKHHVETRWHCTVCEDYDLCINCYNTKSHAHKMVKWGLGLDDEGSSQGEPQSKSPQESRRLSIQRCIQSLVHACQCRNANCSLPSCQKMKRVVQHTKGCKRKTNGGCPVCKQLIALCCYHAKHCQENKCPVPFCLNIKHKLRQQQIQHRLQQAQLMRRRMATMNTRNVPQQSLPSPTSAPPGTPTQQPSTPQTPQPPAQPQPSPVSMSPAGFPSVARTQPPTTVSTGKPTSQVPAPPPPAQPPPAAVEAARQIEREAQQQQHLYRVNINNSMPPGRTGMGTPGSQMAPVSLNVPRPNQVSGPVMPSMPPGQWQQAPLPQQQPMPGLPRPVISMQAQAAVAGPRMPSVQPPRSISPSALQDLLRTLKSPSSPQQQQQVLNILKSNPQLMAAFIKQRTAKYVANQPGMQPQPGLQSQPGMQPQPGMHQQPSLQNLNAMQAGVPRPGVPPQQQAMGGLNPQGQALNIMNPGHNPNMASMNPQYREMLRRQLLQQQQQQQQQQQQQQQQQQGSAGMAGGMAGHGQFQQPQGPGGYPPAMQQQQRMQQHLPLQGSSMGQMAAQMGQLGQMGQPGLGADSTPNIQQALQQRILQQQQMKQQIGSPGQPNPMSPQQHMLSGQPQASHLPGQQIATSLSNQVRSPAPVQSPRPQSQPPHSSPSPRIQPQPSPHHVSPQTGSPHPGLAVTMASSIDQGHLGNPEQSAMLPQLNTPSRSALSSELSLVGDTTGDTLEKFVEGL

[20] = system: Mus musculus; test: Antiinflammatory activity in KLH-TNP-induced T-cell dependent immunization CD-1 mouse model assessed as reduction in circulating IgG1 at 30 mg/kg, po administered every other day for 14 days followed by administration of KLH-TNP after 1 hr; type: functional; conditions: CD-1, T-cell, 336 h, time 14 day
[21] = Cmax in KLH-TNP-induced T-cell dependent immunization CD-1 mouse model at 30 mg/kg, po administered daily for 14 days; type: ADME, organism-based; design: time 14 day, dose 30 mg/kg, route po; conditions: in vivo
[22] = Cmax in KLH-TNP-induced T-cell dependent immunization CD-1 mouse model at 30 mg/kg, po administered every third day for 14 days; type: ADME, organism-based; design: time 14 day, dose 30 mg/kg, route po; conditions: in vivo
[23] = Toxicity in SCID mouse xenografted with human NMC 11060 cells assessed as tolerability at 3 to 30 mg/kg, po for 20 days; type: organism-based; conditions: in vivo, 480 h, dose 3-30 mg/kg, time 20 day
[24] = Antineoplastic activity against human NMC 11060 cells xenografted in SCID mouse assessed as reduction in tumor volume at 10 mg/kg, po for 20 days measured at 3 days of post randomization relative to control; type: functional; conditions: NMC 11060 cell, 480 h, time 20 day
[25] = Antineoplastic activity against human NMC 11060 cells xenografted in SCID mouse assessed as reduction in tumor volume at 10 mg/kg, po for 20 days measured at 6 days of post randomization relative to control; type: functional; conditions: NMC 11060 cell, 480 h, time 20 day
[26] = Antineoplastic activity against human NMC 11060 cells xenografted in SCID mouse assessed as reduction in tumor volume at 10 mg/kg, po for 20 days measured at 8 days of post randomization relative to control; type: functional; conditions: NMC 11060 cell, 480 h, time 20 day
[27] = Antineoplastic activity against human NMC 11060 cells xenografted in SCID mouse assessed as reduction in tumor volume at 10 mg/kg, po for 20 days measured at 20 days of post randomization relative to control; type: functional; conditions: NMC 11060 cell, 480 h, time 20 day
[28] = Antineoplastic activity against human NMC 11060 cells xenografted in SCID mouse assessed as reduction in tumor volume at 30 mg/kg, po for 20 days measured at 3 days of post randomization relative to control; type: functional; conditions: NMC 11060 cell, 480 h, time 20 day
[29] = Antineoplastic activity against human NMC 11060 cells xenografted in SCID mouse assessed as reduction in tumor volume at 30 mg/kg, po for 20 days measured at 6 days of post randomization relative to control; type: functional; conditions: NMC 11060 cell, 480 h, time 20 day
[30] = Antineoplastic activity against human NMC 11060 cells xenografted in SCID mouse assessed as reduction in tumor volume at 30 mg/kg, po for 20 days measured at 8 days of post randomization relative to control; type: functional; conditions: NMC 11060 cell, 480 h, time 20 day
[31] = Antineoplastic activity against human NMC 11060 cells xenografted in SCID mouse assessed as reduction in tumor volume at 30 mg/kg, po for 20 days measured at 15 days of post randomization relative to control; type: functional; conditions: NMC 11060 cell, 480 h, time 20 day

- IC50 [1]: 126 nM
- IC50 [2]: 200 nM
- IC50 [3]: > 39800 nM
- CLH [4]: < 1.26 mL/min/g
- CLH [5]: < 0.87 mL/min/g
- CL free [6]: 109 mL/min/kg
- CL renal at 24 h [7]: 7 mL/min/kg
- Vdss [8]: 2.4 L/kg
- Vdss [9]: 1.2 L/kg
- Vduss [10]: 10.4 L/kg
- Vduss [11]: 2.9 L/kg
- half-life [12]: 1.8 h
- bioavailability [13]: 99%
- bioavailability [14]: 98%
- fraction unbound [15]: 0.41
- CLH [16]: < 0.8 mL/min/g
- Ratio [17]: 85%
- Kd [18]: 25.1 nM
- Kd [19]: 2510 nM
- Cmax [21]: 8.5 µM
- Cmax [22]: 8.5 µM
Structure (SMILES): CC(=O)N1c2ccc(C(N)=O)cc2[C@H](Nc2ncc(Cl)cn2)C[C@@H]1C
- inhibition in vivo at 30 mg/kg [20]: 93%
- Activity [23]: Non-Toxic
- inhibition in vivo at 10 mg/kg [24]: 45%
- inhibition in vivo at 10 mg/kg [25]: 54%
- inhibition in vivo at 10 mg/kg [26]: 62%
- inhibition in vivo at 10 mg/kg [27]: 51%
- inhibition in vivo at 30 mg/kg [28]: 44%
- inhibition in vivo at 30 mg/kg [29]: 70%
- inhibition in vivo at 30 mg/kg [30]: 85%
- inhibition in vivo at 30 mg/kg [31]: 92%
